# According to patent US5175253A, “Binding peptides” (Washington University, priority 1991, dated 1992):
# Read-outs that look alike come from different tables or passages of the source. Ends that are not written are not given here.
# Experiments:
# substance P receptor = target: T1, substance P receptor (Rattus norvegicus, UniProt P14600); assay: Competition for binding of substance P to a stable transfected cell line expressing the substance P receptor
# T1 construct: expressed in transfected cells
# SEC receptor [1] = assay: Competition for binding to, and cross-linking of, the SEC receptor of HepG2 cells; set-up: species or system human
# SEC receptor [2] = details: cited from earlier work
# SEC receptor [3] = details: unlabelled competitor; cited from earlier work
# SEC receptor [4] = assay: Competition for binding of 125I peptide 105C to HepG2 cells; set-up: species or system human; details: 125I peptide 105C 50 nM, 2 hours at 4° C.
# Method: (§1) Left panel a: cells were incubated 2 hours at 4° C. with several different concentrations of ^125 I peptide 105C in the absence (open circles, total ligand binding) or the presence of unlabelled peptide 105C in 200-fold molar excess (filled circles, nonspecific binding). The difference was designated specific binding (open triangles). The cells were then rinsed and cell-associated radioactivity was determined by gamma counting of cell homogenates. Right panel b: cells were incubated for 2 hours at 4° C. with ^125 I peptide 105C in subsaturating concentrations (50 nM) in the absence or presence of unlabelled competing proteins or peptides as indicated on the horizontal axis. The molar excess in fold of each competitor is indicated in parentheses. Binding in the absence of competitor was arbitrarily designated 0% inhibition of binding on the vertical axis.
# (§2) The direct binding of peptide 105C to HepG2 cells was also examined. This peptide was radioiodinated by the chloramine T method and purified by reverse phase C:18 chromatography. Separate monolayers of cells were incubated with ^125 I-105C in several different concentrations either in the absence or presence of unlabelled 105C in 200-fold molar excess (FIG. 3, left panel a). […]
# SEC receptor [5] = assay: Competition for binding of α1 AT-125I trypsin complexes to HepG2 cells; set-up: species or system human; details: complexes 50 nM, competitor in 50-fold molar excess, 2 hrs at 4° C.
# Method: FIG. 2 presents two bar graphs which show competition for binding and internalization of α1 AT^125 I trypsin complexes by HepG2 cells. For panel a, HepG2 cells were incubated for 2 hours at 4° C. in binding buffer, α1 AT-^125 I trypsin complexes in subsaturating concentrations (50 nM) and competing unlabelled proteins or synthetic peptides in 50-fold molar excess. The cells were then rinsed, homogenized and cell-associated radioactivity determined. Binding in the absence of competitor was arbitrarily designated 0% inhibition of binding on the vertical axis. Results represent mean and 1 standard deviation for 3 separate determinations of each competitor. For panel b, HepG2 cells were incubated for 1 hour at 37° C. in binding buffer, α1 AT^125 I trypsin complexes in subsaturating concentrations (50 nM) and competing unlabelled proteins or synthetic peptides in 50-fold molar excess. […] Internalization in the absence of competitor was arbitrarily designated 0% inhibition of internalization on the vertical axis. Results represent mean and 1 standard deviation for 3 separate determinations of each putative competitor. Partial amino acid sequences for α1 AT and peptides are shown at the top of each panel. […]
# SEC receptor [6] = assay: Competition for internalization of α1 AT-125I trypsin complexes by HepG2 cells; type: cell-based, human; details: 50-fold molar excess, 60 minutes at 37° C., Proteinase K-resistant radioactivity
# Method: FIG. 2 presents two bar graphs which show competition for binding and internalization of α1 AT^125 I trypsin complexes by HepG2 cells. For panel a, HepG2 cells were incubated for 2 hours at 4° C. in binding buffer, α1 AT-^125 I trypsin complexes in subsaturating concentrations (50 nM) and competing unlabelled proteins or synthetic peptides in 50-fold molar excess. The cells were then rinsed, homogenized and cell-associated radioactivity determined. Binding in the absence of competitor was arbitrarily designated 0% inhibition of binding on the vertical axis. Results represent mean and 1 standard deviation for 3 separate determinations of each competitor. For panel b, HepG2 cells were incubated for 1 hour at 37° C. in binding buffer, α1 AT^125 I trypsin complexes in subsaturating concentrations (50 nM) and competing unlabelled proteins or synthetic peptides in 50-fold molar excess. […] Internalization in the absence of competitor was arbitrarily designated 0% inhibition of internalization on the vertical axis. Results represent mean and 1 standard deviation for 3 separate determinations of each putative competitor. Partial amino acid sequences for α1 AT and peptides are shown at the top of each panel.
# The cells were then rinsed extensively and incubated with Proteinase K for an additional 60 minutes at 4° C. to remove any surface bound radiolabelled ligand. Internalization was defined as radioactivity associated with the resulting cell pellet. […] Higher degrees of inhibition were achieved by higher concentrations of competitors in other tests.
# SEC receptor [7] = assay: Competition for binding of 125I peptide 105Y to HepG2 cells; set-up: species or system human; details: 125I peptide 105Y 50 nM, 2 hrs at 4° C., unlabelled competitor
# Method: For each test HepG2 cells were incubated for 2 hrs at 4° C. in binding buffer, ^125 I peptide 105Y at saturating concentrations (50 nM) and competing unlabelled synthetic peptides in the concentrations specified on the horizontal axis. […] Binding in the absence of competitor was arbitrarily designated 100% binding on the vertical axis. Each data point and set of error bars represent mean and 1 standard deviation for four separate determinations. Partial amino acid sequences of α1 AT and synthetic peptides are shown at the top of each of panels a, b and c.
# Each bar represents mean and 1 standard deviation for 3 separate determinations.
# synthesis of α1 AT = details: cited from earlier work
# [8] = Solubility of peptides in water and DMSO
# Method: Some of the peptides used as candidate competitors, especially the pentapeptides, were dissolved in dimethylsulfoxide (DMSO) because they were not soluble in water. For all of these tests the same final concentration of DMSO was added to each cell monolayer.
# SEC receptor [9] = assay: Direct binding of 125I peptide 105C to HepG2 cells; set-up: species or system human
# Method: as §1, §2
# T1 sequence (P14600 whole entry): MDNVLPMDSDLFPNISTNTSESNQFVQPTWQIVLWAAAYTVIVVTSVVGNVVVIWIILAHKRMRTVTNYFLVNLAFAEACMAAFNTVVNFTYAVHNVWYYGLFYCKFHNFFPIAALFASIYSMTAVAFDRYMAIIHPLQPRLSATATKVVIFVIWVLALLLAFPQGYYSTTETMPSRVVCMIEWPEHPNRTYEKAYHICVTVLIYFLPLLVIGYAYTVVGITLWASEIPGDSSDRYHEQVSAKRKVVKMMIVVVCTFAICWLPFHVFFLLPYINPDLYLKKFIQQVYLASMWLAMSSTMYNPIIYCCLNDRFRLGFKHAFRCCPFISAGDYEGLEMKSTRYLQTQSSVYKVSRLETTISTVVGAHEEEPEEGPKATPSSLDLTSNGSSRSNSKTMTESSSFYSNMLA
compound,measurement,setting,value
amyloid-β-protein,competition for binding of substance P,substance P receptor,do not compete for binding of substance P
same,"competition for binding to, and cross-linking of, the SEC receptor",SEC receptor [1],"compete for binding to, and cross-linking of, the SEC receptor"
α1 ACT-cathepsin G complexes: serpin-enzyme complex,blocking of binding of 125I peptide 105Y,SEC receptor [2],blocked
"SIPPEVKFNKPFVYLI [peptide 105Y, carboxy-terminal fragment, amino acids 359-374, of α1 AT]",competition for binding of substance P,substance P receptor,do not compete for binding of substance P
same,blocking of binding of 125I α1 AT-elastase complexes,SEC receptor [3],blocked binding
same,inhibition of binding of 125I 105C,SEC receptor [4],inhibited
same,inhibition of binding of α1 AT-125I trypsin complexes to HepG2 cells,SEC receptor [5],inhibits binding
same,inhibition of internalization of α1 AT-125I trypsin complexes,SEC receptor [6],inhibits internalization
same,Kd,"SEC receptor [2]; 125I peptide 105Y, HepG2 cells and human blood monocytes, read-out: K2",0.04 µM
same,direct binding of 125I peptide 105Y,SEC receptor [2]; HepG2 cells and human blood monocytes,bound specifically and saturably
same,competition for binding of 125I peptide 105Y to HepG2 cells,SEC receptor [7],compete
same,effect on synthesis of α1 AT,synthesis of α1 AT,mediated an increase in synthesis of α1 AT
α1 AT-elastase complexes: complex of α1 AT with neutrophil elastase,blocking of binding of 125I peptide 105Y,SEC receptor [2],blocked
"native α1 AT: purified human plasma α1-antitrypsin, 55 kDa serum glycoprotein",inhibition of internalization of α1 AT-125I trypsin complexes,SEC receptor [6],no significant inhibition of internalization
CSCC[C@H](NC(=O)[C@H](CC(C)C)NC(=O)[C@H](Cc1cnc[nH]1)NC(=O)CNC(=O)[C@@H](NC(=O)[C@H](C)NC(=O)[C@H](Cc1c[nH]c2ccccc12)NC(=O)[C@H](CCC(N)=O)NC(=O)[C@H](CC(N)=O)NC(=O)CNC(=O)[C@H](CC(C)C)NC(=O)[C@H](CCCN=C(N)N)NC(=O)[C@H](CCC(N)=O)NC(=O)[C@@H]1CCC(=O)N1)C(C)C)C(N)=O [bombesin],competition for binding of substance P,substance P receptor,do not compete for binding of substance P
same,"competition for binding to, and cross-linking of, the SEC receptor",SEC receptor [1],"compete for binding to, and cross-linking of, the SEC receptor"
"EVKFNKP [peptide 105B, Glu-Val-Lys-Phe-Asn-Lys-Pro]",solubility,[8],soluble in both water and DMSO
Phe-Val-Tyr-Leu-Ile (FVYLI) [peptide 105C],direct binding to HepG2 cells,SEC receptor [9]; 125I-105C with or without unlabelled 105C in 200-fold molar excess,specific and saturable binding
same,Kd,"SEC receptor [9]; 125I-105C, HepG2 cells, 2 hours at 4° C., read-out: point of half-maximal saturation",~0.04 µM
same,inhibition of binding of α1 AT-125I trypsin complexes to HepG2 cells,SEC receptor [5],inhibits binding
same,inhibition of internalization of α1 AT-125I trypsin complexes,SEC receptor [6],inhibits internalization as effectively as peptide 105Y and unlabelled α1 AT-trypsin complexes
same,competition for binding of 125I peptide 105Y to HepG2 cells,SEC receptor [7],compete as effectively as peptide 105Y
same,competition for binding of 125I peptide 105Y to HepG2 cells,SEC receptor [7]; listed as FVYLI,no difference in inhibition of binding
